Test results published in US20240270821A1, “GIP/GLP1/GCG TRI-RECEPTOR AGONISTS AND USES THEREOF” (priority 2023, published 2024).
Like-named read-outs stand apart in the source and are kept apart here. Starred links: 1 amine or outer side, 2 acyl side, 3 side chain; linkers in the order of their positions; H or OH if unused. Non-standard residues stand in square brackets, D forms with d. Residues, ends and D or L forms follow the SMILES beside them. Groups on a side chain read outwards from the residue. No end group written: not given here. *: point of attachment. C18 diacid = O=C(O)CCCCCCCCCCCCCCCCC(=O)*; αMePhe(2-F) = C[C@](N)(Cc1ccccc1F)C(=O)O; γGlu = O=C(O)[C@H](CCC(=O)[*:2])N[*:1]; αMe4Pal = C[C@](N)(Cc1ccncc1)C(=O)O; αMeY = C[C@](N)(Cc1ccc(O)cc1)C(=O)O; 4Pal = N[C@@H](Cc1ccncc1)C(=O)O; αMeL = CC(C)C[C@](C)(N)C(=O)O; αMeS = C[C@](N)(CO)C(=O)O; Orn = NCCC[C@H](N)C(=O)O; AEEA = NCCOCCOCC(=O)O; Aib = CC(C)(N)C(=O)O

Assays:
Format in all cases: cell-based
hGIPR [1] = molecular target: T1, hGIPR (Homo sapiens, UniProt P48546); test: Functional cAMP activity in the presence of 1% HSA; conditions: read-out: cAMP Rel EC50, hGIPR
T1 sequence (P48546 22-466): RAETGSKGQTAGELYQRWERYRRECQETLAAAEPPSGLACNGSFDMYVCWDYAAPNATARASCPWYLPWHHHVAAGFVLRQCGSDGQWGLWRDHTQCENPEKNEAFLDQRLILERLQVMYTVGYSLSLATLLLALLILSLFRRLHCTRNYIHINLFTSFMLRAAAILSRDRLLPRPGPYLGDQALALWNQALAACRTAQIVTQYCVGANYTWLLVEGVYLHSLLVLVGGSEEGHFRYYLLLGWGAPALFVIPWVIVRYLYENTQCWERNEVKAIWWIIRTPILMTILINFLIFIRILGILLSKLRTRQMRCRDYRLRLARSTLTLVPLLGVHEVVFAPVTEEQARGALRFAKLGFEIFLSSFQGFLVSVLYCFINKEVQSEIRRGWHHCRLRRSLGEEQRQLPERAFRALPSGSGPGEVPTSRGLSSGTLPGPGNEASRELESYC

human GcgR = human GcgR (Homo sapiens, UniProt P47871); test: Functional cAMP activity in the presence of 1% HSA; conditions: read-out: cAMP Rel EC50, hGcgR
hGIPR [2] = molecular target: T1, hGIPR; test: Functional cAMP activation in the presence of 0.1% casein (no HSA); conditions: read-out: Relative cAMP EC50, hGIPR;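 as to Relative cAMP EC50, hGIPR: intracellular cAMP rise after 30 min at 37 °C read by HTRF against a standard curve, scaled between buffer alone (0%) and top control ligand concentration (100%), four-parameter fit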;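 as to Relative cAMP EC50, hGLP-1R: intracellular cAMP rise after 30 min at 37 °C read by HTRF, normalized between buffer only (0%) and maximal control ligand (100%), four-parameter variable-slope fit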;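 as to Relative cAMP EC50, hGcgR: intracellular cAMP rise after 30 min at 37 °C, read by HTRF against a cAMP standard curve, scaled from buffer only (0%) to maximal control ligand response (100%)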
hGcgR = hGcgR (Homo sapiens, UniProt P47871); test: as above; conditions: read-out: Relative cAMP EC50, hGcgR;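 also: intracellular cAMP rise after 30 min at 37 °C, read by HTRF against a cAMP standard curve, scaled from buffer only (0%) to maximal control ligand response (100%)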
hGLP-1R [3] = molecular target: T2, hGLP-1R (Homo sapiens, UniProt P43220); test: Functional cAMP activity in the presence of 1% HSA; conditions: read-out: cAMP Rel EC50, hGLP-1R
hGLP-1R [4] = molecular target: T2, hGLP-1R; test: Functional cAMP activation in the presence of 0.1% casein (no HSA); conditions: read-out: Relative cAMP EC50, hGLP-1R;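 as to Relative cAMP EC50, hGIPR: intracellular cAMP rise after 30 min at 37 °C read by HTRF against a standard curve, scaled between buffer alone (0%) and top control ligand concentration (100%), four-parameter fit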;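 as to Relative cAMP EC50, hGLP-1R: intracellular cAMP rise after 30 min at 37 °C read by HTRF, normalized between buffer only (0%) and maximal control ligand (100%), four-parameter variable-slope fit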;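 as to Relative cAMP EC50, hGcgR: intracellular cAMP rise after 30 min at 37 °C, read by HTRF against a cAMP standard curve, scaled from buffer only (0%) to maximal control ligand response (100%)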
[5] = in the presence of 0.1% casein (no HSA), geometric mean
[6] = 0.1% casein, no HSA, geometric mean

T2 sequence (P43220 24-463): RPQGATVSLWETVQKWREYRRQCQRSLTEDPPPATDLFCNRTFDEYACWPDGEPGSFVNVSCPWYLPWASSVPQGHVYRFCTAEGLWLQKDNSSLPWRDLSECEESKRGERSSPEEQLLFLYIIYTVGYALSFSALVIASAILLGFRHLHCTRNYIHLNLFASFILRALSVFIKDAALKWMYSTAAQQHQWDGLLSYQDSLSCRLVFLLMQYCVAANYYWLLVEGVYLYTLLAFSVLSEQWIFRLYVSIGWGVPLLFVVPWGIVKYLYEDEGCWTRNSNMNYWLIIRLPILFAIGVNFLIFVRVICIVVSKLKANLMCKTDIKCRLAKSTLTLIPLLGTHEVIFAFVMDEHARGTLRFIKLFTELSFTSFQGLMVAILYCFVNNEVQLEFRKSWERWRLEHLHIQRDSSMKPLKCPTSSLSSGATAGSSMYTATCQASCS
Chain of human GcgR (P47871 26-477): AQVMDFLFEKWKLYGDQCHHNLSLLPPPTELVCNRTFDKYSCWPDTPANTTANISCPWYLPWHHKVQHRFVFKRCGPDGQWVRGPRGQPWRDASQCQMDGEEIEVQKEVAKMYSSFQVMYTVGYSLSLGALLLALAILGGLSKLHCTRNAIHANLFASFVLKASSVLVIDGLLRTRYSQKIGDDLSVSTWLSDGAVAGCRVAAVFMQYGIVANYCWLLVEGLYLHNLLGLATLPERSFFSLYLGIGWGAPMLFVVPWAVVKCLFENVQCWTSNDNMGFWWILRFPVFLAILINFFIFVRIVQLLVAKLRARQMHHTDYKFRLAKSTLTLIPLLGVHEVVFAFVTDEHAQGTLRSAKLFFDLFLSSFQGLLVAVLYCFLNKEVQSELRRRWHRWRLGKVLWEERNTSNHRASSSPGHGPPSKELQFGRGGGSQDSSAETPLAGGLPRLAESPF
Chain of hGcgR (P47871 26-477): as above

| Compound | EC50 (hGIPR [1]) [nM] | EC50 (human GcgR) [nM] | EC50 (hGLP-1R [3]) [nM] | EC50 (hGIPR [2]) [nM] | EC50 (hGcgR) [nM] | EC50 (hGLP-1R [4]) [nM] | EC50 (hGIPR [2]; [6]) [nM] | EC50 (hGcgR; [6]) [nM] | EC50 (hGLP-1R [4]; [6]) [nM] | EC50 (hGIPR [2]; [5]) [nM] | EC50 (hGcgR; [5]) [nM] | EC50 (hGLP-1R [4]; [5]) [nM] |
| --- | --- | --- | --- | --- | --- | --- | --- | --- | --- | --- | --- | --- |
| H-Y[Aib]QGTFTSDFSK[αMeL]LDKK([AEEA-γGlu-C18 diacid])AQ[Aib]AFIEYLLEGGESSGAPPPSGS-NH2 [Example 146] | 74.6 | 463 | 678 | – | – | – | – | – | – | 0.362 | 2.04 | 2.73 |
| H-Y[Aib]QGTFTSD[4Pal]SQ[αMeL]LDKK([AEEA-γGlu-C18 diacid])AQ[αMe4Pal]AFIEYLLAGGPSSGAPPPSGSEE-NH2 [Example 1037] | 13.7 | 291 | 625 | – | – | – | – | – | – | 0.221 | 3.31 | 5.95 |
| H-Y[Aib]QGTFTSD[4Pal]SK[αMeL]LDKK([γGlu-γGlu-C18 diacid])AQ[Aib]AFIEYLIE[Aib]GPSSGAPPPSGSEEE-NH2 [Example 906] | 15.4 | 1170 | 236 | – | – | – | – | – | – | 0.212 | 14.7 | 2.48 |
| H-Y[Aib]QGT[αMePhe(2-F)]TSD[4Pal]SILLDKK([γGlu-γGlu-C18 diacid])AQ[Aib]AFIEYLEEGGPSSGAPPPSGSEE-NH2 [Example 610] | 7.02 | 536 | 130 | 0.133 | 5.75 | 1.66 | – | – | – | – | – | – |
| H-Y[Aib]QGTFTSD[4Pal]S[Orn][αMeL]LD[Orn]K([γGlu-γGlu-C18 diacid])AQ[αMe4Pal]QFIEYLLAGGPSSGAPPPSGSEE-NH2 [Example 1002] | 11.6 | 197 | 1290 | – | – | – | – | – | – | 0.119 | 1.89 | 9.09 |
| H-Y[Aib]QGT[αMePhe(2-F)]TSD[4Pal][αMeS]I[αMeL]LD[Orn]K([AEEA-γGlu-C18 diacid])AQ[αMe4Pal]EFI[dE][αMeY]LIEGGPPS[Aib][Orn]PPPSGGGE-NH2 [Example 1199] | 0.733 | 352 | 63.9 | – | – | – | 0.0076 | 2.05 | 0.5 | – | – | – |
| H-Y[Aib]QGT[αMePhe(2-F)]TSD[4Pal]SI[αMeL]LD[Orn]K([γGlu-γGlu-C18 diacid])AQ[αMe4Pal][Orn]FI[dE]YLIEGGPSSGEPPPEGT-NH2 [Example 541] | 1.28 | 520 | 38.7 | 0.0213 | 4.26 | 0.74 | – | – | – | – | – | – |
| Y[Aib]QGTFTSD[4Pal]SQ[αMeL]LDKK([dE-γGlu-C18 diacid])AQ[αMe4Pal]AFIEYLIE[Aib]GPSSGAPPPSGSE-NH2 [Example 924] | 15.7 | 910 | 402 | – | – | – | – | – | – | 0.0798 | 6.05 | 3.12 |
| CC[C@H](C)[C@H](NC(=O)[C@H](Cc1ccccc1)NC(=O)[C@H](C)NC(=O)C(C)(C)NC(=O)[C@H](CCC(N)=O)NC(=O)[C@H](C)NC(=O)[C@H](CCCCNC(=O)CC[C@H](NC(=O)CC[C@H](NC(=O)CCCCCCCCCCCCCCCCC(=O)O)C(=O)O)C(=O)O)NC(=O)[C@H](CCCN)NC(=O)[C@H](CC(=O)O)NC(=O)[C@H](CC(C)C)NC(=O)[C@](C)(CC(C)C)NC(=O)[C@@H](NC(=O)[C@H](CO)NC(=O)[C@H](Cc1ccncc1)NC(=O)[C@H](CC(=O)O)NC(=O)[C@H](CO)NC(=O)[C@@H](NC(=O)[C@](C)(Cc1ccccc1F)NC(=O)[C@@H](NC(=O)CNC(=O)[C@H](CCC(N)=O)NC(=O)C(C)(C)NC(=O)[C@@H](N)Cc1ccc(O)cc1)[C@@H](C)O)[C@@H](C)O)[C@@H](C)CC)C(=O)N[C@@H](CCC(=O)O)C(=O)N[C@@H](Cc1ccc(O)cc1)C(=O)N[C@@H](CC(C)C)C(=O)N[C@@H](CCC(=O)O)C(=O)N[C@@H](CCC(=O)O)C(=O)NCC(=O)NCC(=O)N1CCC[C@H]1C(=O)N[C@@H](CO)C(=O)N[C@@H](CO)C(=O)NCC(=O)N[C@@H](C)C(=O)N1CCC[C@H]1C(=O)N1CCC[C@H]1C(=O)N1CCC[C@H]1C(=O)N[C@@H](CO)C(N)=O [Example 441] (H-Y[Aib]QGT[αMePhe(2-F)]TSD[4Pal]SI[αMeL]LD[Orn]K([γGlu-γGlu-C18 diacid])AQ[Aib]AFIEYLEEGGPSSGAPPPS-NH2) | 1.96 | 855 | 24.7 | 0.0239 | 8 | 0.365 | – | – | – | – | – | – |
| Y[Aib]QGTFTSD[4Pal]SQ[αMeL]LD[Orn]K([AEEA-γGlu-C18 diacid])AQ[αMe4Pal]QFIE[αMeY]LIE[Aib]GPSSGEPPPSGSEE-NH2 [Example 1098] | 31.2 | 994 | 184 | – | – | – | – | – | – | 0.201 | 6.2 | 1.22 |
| H-Y[Aib]QGTFTSD[4Pal]SK[αMeL]LDKK([γGlu-γGlu-C18 diacid])AQ[Aib]AFIEYLIE[Aib]GPSSGAPPPSGS-NH2 [Example 907] | 8.86 | 1210 | 123 | – | – | – | – | – | – | 0.103 | 5.79 | 1.15 |
| Y[Aib]QGTFTSDFS[Orn][αMeL]LDKK([AEEA-γGlu-C18 diacid])AQ[Aib]AFIEWLLEGGHSSGAPPPGGE-NH2 [Example 273] | 21.8 | 1770 | 516 | – | – | – | – | – | – | 0.243 | 6.96 | 4.02 |

Second part, led by results:

| EC50 (hGIPR [1]) [nM] | EC50 (human GcgR) [nM] | EC50 (hGLP-1R [3]) [nM] | EC50 (hGIPR [2]) [nM] | EC50 (hGcgR) [nM] | EC50 (hGLP-1R [4]) [nM] | EC50 (hGIPR [2]; [6]) [nM] | EC50 (hGcgR; [6]) [nM] | EC50 (hGLP-1R [4]; [6]) [nM] | Compound | EC50 (hGIPR [2]; [5]) [nM] | EC50 (hGcgR; [5]) [nM] | EC50 (hGLP-1R [4]; [5]) [nM] |
| --- | --- | --- | --- | --- | --- | --- | --- | --- | --- | --- | --- | --- |
| 1.34 | 205 | 39.1 | 0.00784 | 2 | 0.302 | – | – | – | H-Y[Aib]QGT[αMePhe(2-F)]TSD[4Pal][αMeS]I[αMeL]LD[Orn]K([AEEA-γGlu-C18 diacid])AQ[αMe4Pal]EFI[dE][αMeY]LVEGGPSSGEPPPSGE-NH2 [Example 750] | – | – | – |
| 63.7 | 1280 | 437 | 0.874 | 17.1 | 4.91 | – | – | – | H-Y[Aib]QGT[αMePhe(2-F)]TSD[4Pal][αMeS]I[αMeL]LD[Orn]K([γGlu-γGlu-C18 diacid])AQ[Aib][Orn]FI[dE]YLSEGGPSSGEPPPSGTE-NH2 [Example 530] | – | – | – |
| 7.94 | 355 | 52 | 0.113 | 3.8 | 0.883 | – | – | – | H-Y[Aib]QGT[αMePhe(2-F)]TSD[4Pal][αMeS]I[αMeL]LD[Orn]K([γGlu-γGlu-C18 diacid])AQ[Aib][Orn]FI[dE][αMeY]LSEGGPSSGEPPPSGSE-NH2 [Example 560] | – | – | – |
| 3.13 | 330 | 30.4 | 0.0465 | 3.48 | 0.366 | – | – | – | H-Y[Aib]QGT[αMePhe(2-F)]TSD[4Pal][αMeS]I[αMeL]LD[Orn]K([γGlu-γGlu-C18 diacid])AQ[Aib][Orn]FI[dE][αMeY]LQEGGPSSGEPPPSGTEE-NH2 [Example 572] | – | – | – |
| 14.6 | 165 | 15.1 | 0.0634 | 4.38 | 0.293 | – | – | – | CC[C@H](C)[C@H](NC(=O)[C@H](Cc1ccccc1)NC(=O)[C@H](CCCN)NC(=O)C(C)(C)NC(=O)[C@H](CCC(N)=O)NC(=O)[C@H](C)NC(=O)[C@H](CCCCNC(=O)CC[C@H](NC(=O)CC[C@H](NC(=O)CCCCCCCCCCCCCCCCC(=O)O)C(=O)O)C(=O)O)NC(=O)[C@H](CCCN)NC(=O)[C@H](CC(=O)O)NC(=O)[C@H](CC(C)C)NC(=O)[C@](C)(CC(C)C)NC(=O)[C@@H](NC(=O)[C@](C)(CO)NC(=O)[C@H](Cc1ccncc1)NC(=O)[C@H](CC(=O)O)NC(=O)[C@H](CO)NC(=O)[C@@H](NC(=O)[C@](C)(Cc1ccccc1F)NC(=O)[C@@H](NC(=O)CNC(=O)[C@H](CCC(N)=O)NC(=O)C(C)(C)NC(=O)[C@@H](N)Cc1ccc(O)cc1)[C@@H](C)O)[C@@H](C)O)[C@@H](C)CC)C(=O)N[C@H](CCC(=O)O)C(=O)N[C@@](C)(Cc1ccc(O)cc1)C(=O)N[C@@H](CC(C)C)C(=O)N[C@@H](CCC(N)=O)C(=O)N[C@@H](CCC(=O)O)C(=O)NCC(=O)NCC(=O)N1CCC[C@H]1C(=O)N[C@@H](CO)C(=O)N[C@@H](CO)C(=O)NCC(=O)N[C@@H](CCC(=O)O)C(=O)N1CCC[C@H]1C(=O)N1CCC[C@H]1C(=O)N1CCC[C@H]1C(=O)N[C@@H](CCC(=O)O)C(N)=O [Example 439] (H-Y[Aib]QGT[αMePhe(2-F)]TSD[4Pal][αMeS]I[αMeL]LD[Orn]K([γGlu-γGlu-C18 diacid])AQ[Aib][Orn]FI[dE][αMeY]LQEGGPSSGEPPPE-NH2) | – | – | – |
| 1.39 | 215 | 52.7 | – | – | – | – | – | – | H-Y[Aib]QGT[αMePhe(2-F)]TSD[4Pal][αMeS]I[αMeL]LD[Orn]K([AEEA-γGlu-C18 diacid])AQ[αMe4Pal]EFI[dE][αMeY]LVEGGPSSGEPPPTGE-NH2 [Example 1153] | 0.0109 | 2.69 | 0.33 |
